Type in all cases: in vivo
Holding throughout (settings): HFD mice, 4 weeks, vs HF group

In one assay the test system is PPARα. The assay is described as follows: Semi-quantitative RT-PCR of liver mRNA: PPARα. How it is done: (§1) The following experiment was performed and approved by the guidelines of the Institutional Animal Care and Use Committee of Central Taiwan University of Science and Technology. The 4-week old male C57BL/6J mice (total amount n=63) were purchased from the National Laboratory Animal Breeding and Research Center (Taipei, Taiwan). After acclimatization for one week, all of the mice were divided randomly into the control (CON) group and the high-fat diet (HFD) group. […] After HFD exposure for 8 weeks, the HFD group was further randomly subdivided into 6 groups (n=9 per group) to receive different treatments by oral gavage once daily for four weeks and on HFD. […] The HF+B1, HF+B2, and […] are collectively termed BB-treated HFD groups in the following examples. The CON mice were administered vehicle. After dosing for 4 weeks, the mice were given no food at night and sacrificed after 12 h of fasting on the next day. All of the individual tissues were collected and weighed, and portions were instantly frozen using liquid nitrogen and kept at −80° C. for subsequent target gene analysis. Blood samples (0.8 mL) were collected for analysis of blood parameters.
Total RNA from liver tissue of mice was isolated with a Trizol Reagent (Molecular Research Center, Inc., Cincinnati, Ohio, USA) according to the manufacturer's instructions. The integrity of the extracted total RNA was examined by 2% agarose gel electrophoresis, and the RNA concentration was determined by the ultraviolet (UV) light absorbency at 260 nm and 280 nm (Spectrophotometer U-2800A, Hitachi). The quality of the RNA was confirmed by ethidium bromide staining of 18S and 28S ribosomal RNA after electrophoresis on 2% agarose gel containing 6% formaldehyde.
Levels of mRNA of genes of interest were quantified by semi-quantitative reverse transcription polymerase chain reaction (RT-PCR). […] PCR products were analyzed by 2% agarose gels and stained with ethidium bromide.

The next assay relates to AMPK. The assay is described as follows: Western blotting of phospho-AMPK/total AMPK in skeletal muscle and liver. How it is done: The following experiment was performed and approved by the guidelines of the Institutional Animal Care and Use Committee of Central Taiwan University of Science and Technology. The 4-week old male C57BL/6J mice (total amount n=63) were purchased from the National Laboratory Animal Breeding and Research Center (Taipei, Taiwan). After acclimatization for one week, all of the mice were divided randomly into the control (CON) group and the high-fat diet (HFD) group. For the following 12 weeks, the CON group (n=9) was kept on a low-fat diet (Diet 12450B, Research Diets, Inc., New Brunswick, N.J., USA), while the HFD group (n=54) was exposed to a high-fat diet (Diet 12451, Research Diets, New Brunswick, N.J., USA). The low-fat diet was composed of protein 20%, carbohydrate 70% and fat 10%, whereas the high-fat diet was composed of protein 20%, carbohydrate 35%, and fat 45% (of total energy, % kcal). After HFD exposure for 8 weeks, the HFD group was further randomly subdivided into 6 groups (n=9 per group) to receive different treatments by oral gavage once daily for four weeks and on HFD. […] The HF+B1, HF+B2, and […] are collectively termed BB-treated HFD groups in the following examples. The CON mice were administered vehicle. After dosing for 4 weeks, the mice were given no food at night and sacrificed after 12 h of fasting on the next day. All of the individual tissues were collected and weighed, and portions were instantly frozen using liquid nitrogen and kept at −80° C. for subsequent target gene analysis. Blood samples (0.8 mL) were collected for analysis of blood parameters.
Protein extractions and immunoblots for the determination of phospho-AMPK (Thr^172) and phospho-Akt (Ser^473) proteins in skeletal muscle and liver tissue of mice (n=9) were carried out. About 0.1 g of liver tissue and skeletal muscle was used for the homogenate samples. Samples were powdered under liquid nitrogen and homogenized for 20 seconds in 500 μL buffer containing 20 mM Tris-HCL1 (pH 7.4 at 4° C.), 2% SDS, 5 mM EDTA, 5 mM EGTA, 1 mM DTT, 100 mM NaF, 2 mM sodium vanadate, 0.5 mM phenylmethylsulfonyl fluoride, 10 μg/mL leupeptin, and […] pepstatin. The protein concentration in supernatant was determined with a BCA protein assay kit (Thermo Scientific, Rockford, Ill., USA). 20 μg of proteins were separated by electrophoresis on a polyacrylamide gel 12% (SDS-PAGE) and transferred to a nitrocellulose membrane. The membranes were blocked with 5% slim milk in Tris-buffered saline (TBS)(Amersham BioSciences, Uppsala, Sweden) containing 0.05% Tween-20 (Bio Rad, CA, USA) and incubated overnight at 4° C. with anti-phospho-AMPK (Abcam Inc., Cambridge, Mass., USA) and anti-phospho-Akt (Cell signaling Technology, Inc., Danvers, Mass., USA) rabbit polyclonal antibodies at 1:200 dilution. Subsequently, the membranes were washed three times with TBS containing 0.05% Tween-20 and incubated with secondary antibody anti-rabbit (1:1000) (Jackson ImmunoResearch Laboratories, Inc., PA, USA) for 1 hour. Immunoreactive bands were detected with ECL reagent kit (GE Healthcare BioSciences, Buckinghamshire, UK). The intensity of blotting was analyzed using Alpha Easy FC software (Alpha Innotech Corporation, Randburg, South Africa). Structural proteins GAPDH (Santa Cruz Biotechnology, CA, USA) in the samples were used as the loading control.

The next assay concerns GLUT4. The assay is described as follows: Western blotting of membrane GLUT4 in skeletal muscle. Here is the method:
as §1
The protein concentration in supernatant was determined with a BCA protein assay kit (Thermo Scientific, Rockford, Ill., USA). […] Immunoreactive bands were detected with ECL reagent kit (GE Healthcare BioSciences, Buckinghamshire, UK).

For `OCC1O[C@@H](O[C@@H]2Cc3c(O)cc(O)cc3O[C@@H]2c2ccc(O)c(O)c2)C(O)C(O)[C@@H]1O` (single isomer, unassigned; (-)) [compound of formula I, (−)-epicatechin-3-O-β-D-allopyranoside], the “liver PPARα mRNA level” value with PPARα (10 mg/kg/day oral gavage), in the assay on PPARα (20 mg/kg/day oral gavage) and in the assay on PPARα (40 mg/kg/day oral gavage) was “enhanced” each time. In addition, the “expression level of phospho-AMPK/total AMPK” value in the assay on AMPK (liver, 10 mg/kg/day oral gavage) is listed as “enhanced”; in the assay on AMPK (liver, 20 mg/kg/day oral gavage), “enhanced”; with AMPK (liver, 40 mg/kg/day oral gavage), “enhanced”; in the assay on AMPK (skeletal muscle, 10 mg/kg/day oral gavage), “enhanced”; with AMPK (skeletal muscle, 20 mg/kg/day oral gavage), “enhanced”; in the assay with AMPK (skeletal muscle, 40 mg/kg/day oral gavage) it was “enhanced”. The “protein level of GLUT4 at the plasma membrane” value in the assay on GLUT4 (10 mg/kg/day oral gavage), with GLUT4 (20 mg/kg/day oral gavage) and with GLUT4 (40 mg/kg/day oral gavage) was “significantly enhanced” in each case.
